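Grown in 96-well plates, cells were treated for 48 hours with each compound at five concentrations. Insufficient inhibition: endpoint recorded as highest concentration tested. At the GI50, growth is halved. The concentration for full growth arrest is given as TGI.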 Where a SMILES comes first, the peptide text is derived from it. The star is where a group is joined. Boc = CC(C)(C)OC(=O)*

The subject of one experiment is OVCAR-8 ovarian. In words: NCI tumour cell line growth inhibition, 48 h.
`O=P(c1ccccc1)(c1ccccc1)N1O[C@@H](c2ccccc2)C=C[C@H]1c1ccccc1` returned a TGI of 32.7 µM.

Take `COC(=O)[C@]12CC[C@H]3CN(C(=O)OCc4ccccc4)[C@H]([C@H]31)[C@H](c1ccco1)N2S(=O)(=O)c1ccc(C)cc1`: the TGI is more than 100 µM.

The molecule `O=C1C[C@H](Sc2ccccc2)C2(OCCO2)[C@@H](Sc2ccccc2)C1` displayed a TGI of 8.02 µM.

With `CCCNC(=O)CCC(C)[C@H]1CCC2C3C(C[C@H](OC(C)=O)[C@@]21C)[C@@]1(C)CCC2(C[C@H]1C[C@H]3OC(C)=O)OOC1(CCC(C)CC1)OO2` (some centres undefined), the TGI was 48.3 µM.

For `CCN(C(=S)N[C@@H](Cc1ccccc1)C(=O)N[C@@H](CC(C)C)C(=O)OC)c1ccccc1`, the TGI is more than 100 µM.

`CCCn1c(CN(Cc2nc3ccccc3n2CCC)Cc2nc3ccccc3n2CCC)nc2ccccc21` yielded a TGI of more than 100 µM.

As to `CSc1c(C#N)c(N)n2c1C(=O)N(c1ccccc1)C2=S`, the TGI was more than 100 µM.

Take `N#CCCN(CCC#N)c1ccc(/C=C2\N=C(c3ccccc3)N(c3ccc(Cl)cc3)C2=O)cc1`: the TGI is more than 100 µM.

On to `Cc1c(S(=O)(=O)/N=C(\N)Nc2ccc(Cl)cc2)sc2ccc(Cl)cc12`, for which the TGI was found to be 38.9 µM.

With `NNC(=O)c1ccc[n+](CCc2ccccc2)c1`, the TGI was more than 100 µM.

Molecule `COc1cc(NS(C)(=O)=O)ccc1N1Cc2cnc3ccc4[nH]c(C)cc1c4c23` gave a TGI of more than 100 µM.

As for `O=C1CN2C(c3ccccc3)=NN(c3ccc([N+](=O)[O-])cc3)C2(c2ccccc2)c2cc(Cl)ccc2N1CC1CC1` (centres undefined), the TGI was more than 100 µM.

`COc1ccc2cc3c4cc5c(cc4cc[n+]3cc2c1OC)OCO5`: the TGI is more than 94.8 µM.

Regarding `CCN(CCO)CC1COc2ccccc2O1` (centres undefined), the TGI is more than 100 µM.

Molecule `O=c1oc(-c2ccc(O)c(O)c2)cc2cccc(O)c12` registered a TGI of more than 100 µM.

Regarding `CCOC(=O)c1c(-c2ccc(OC)cc2)c(C#N)c(=S)n(C2OC(COC(C)=O)C(OC(C)=O)C(OC(C)=O)C2OC(C)=O)c1C` (centres undefined), the TGI is more than 100 µM.

Molecule `C1=CC2=CC=CC3c4nc5ccc6ccccc6c5nc4C(=C1)C23` (centres undefined) showed a TGI of more than 100 µM.

Consider `O=C(NCCCN(CCCCN(CCCNC(=O)C(F)(F)F)Cc1ccccc1)Cc1ccccc1)C(F)(F)F`, for which the TGI is 26.9 µM.

`O=C1/C(=C\c2cccc(Oc3ccccc3)c2)S(=O)(=O)C(c2ccccc2)N1Cc1ccccc1` (centres undefined) came in with a TGI of 53.4 µM.

For the molecule `O=C(N=Nc1cc(Cl)ccc1Cl)NNc1cc(Cl)ccc1Cl`, the TGI was more than 100 µM.

Turning to `C/C=C/C=C/c1nc(C#N)c(N)o1`, the TGI was more than 100 µM.

With `CC(C)(C)OC(=O)NCC(=O)NCC(=O)NCC(=O)NCC(=O)O` (Boc-GGGG-OH), the TGI was more than 100 µM.

Turning to `COc1cc(C2SCC(=O)N2c2ccc(NC(=O)c3ccc(N4C(=O)CSC4c4cc(OC)c(OC)c(OC)c4)cc3)cc2)cc(OC)c1OC` (centres undefined), the TGI was more than 100 µM.

In a further experiment the test system is MDA-MB-231 breast. In words: NCI tumour cell line growth inhibition, 48 h.
The molecule `O=P(c1ccccc1)(c1ccccc1)N1O[C@@H](c2ccccc2)C=C[C@H]1c1ccccc1` yielded a TGI of 21.1 µM.

In turn, `COC(=O)[C@]12CC[C@H]3CN(C(=O)OCc4ccccc4)[C@H]([C@H]31)[C@H](c1ccco1)N2S(=O)(=O)c1ccc(C)cc1` gave a TGI of more than 100 µM.

On to `O=C1C[C@H](Sc2ccccc2)C2(OCCO2)[C@@H](Sc2ccccc2)C1`, for which the TGI was 5.78 µM.

As to `CCCNC(=O)CCC(C)[C@H]1CCC2C3C(C[C@H](OC(C)=O)[C@@]21C)[C@@]1(C)CCC2(C[C@H]1C[C@H]3OC(C)=O)OOC1(CCC(C)CC1)OO2` (some centres undefined), the TGI came to 98.4 µM.

`CCN(C(=S)N[C@@H](Cc1ccccc1)C(=O)N[C@@H](CC(C)C)C(=O)OC)c1ccccc1`: the TGI was more than 100 µM.

In the case of `CCCn1c(CN(Cc2nc3ccccc3n2CCC)Cc2nc3ccccc3n2CCC)nc2ccccc21`, the TGI came out at 7.86 µM.

In turn, `CSc1c(C#N)c(N)n2c1C(=O)N(c1ccccc1)C2=S` displayed a TGI of 45.6 µM.

Molecule `N#CCCN(CCC#N)c1ccc(/C=C2\N=C(c3ccccc3)N(c3ccc(Cl)cc3)C2=O)cc1` registered a TGI of more than 100 µM.

For `Cc1c(S(=O)(=O)/N=C(\N)Nc2ccc(Cl)cc2)sc2ccc(Cl)cc12`, the TGI worked out at 32.9 µM.

In turn, `NNC(=O)c1ccc[n+](CCc2ccccc2)c1` yielded a TGI of more than 100 µM.

The molecule `COc1cc(NS(C)(=O)=O)ccc1N1Cc2cnc3ccc4[nH]c(C)cc1c4c23` showed a TGI of more than 100 µM.

`O=C1CN2C(c3ccccc3)=NN(c3ccc([N+](=O)[O-])cc3)C2(c2ccccc2)c2cc(Cl)ccc2N1CC1CC1` (centres undefined) yielded a TGI of more than 100 µM.

In the case of `COc1ccc2cc3c4cc5c(cc4cc[n+]3cc2c1OC)OCO5`, the TGI was more than 100 µM.

With `CCN(CCO)CC1COc2ccccc2O1` (centres undefined), the TGI was more than 100 µM.

In turn, `COc1ccc2nc3cc(Cl)ccc3c(NCCCNCCCNc3c4ccc(Cl)cc4nc4ccc(OC)cc34)c2c1` showed a TGI of 0.0555 µM.

With `O=c1oc(-c2ccc(O)c(O)c2)cc2cccc(O)c12`, the GI50 is 14.1 µM and the TGI is 46.9 µM.

Regarding `COc1cc2c(cc1-c1c(C)noc1C)cc(C)c(=O)n2Cc1ccccn1`, the GI50 is 0.809 µM and the TGI was more than 100 µM.

As to `CCOC(=O)c1c(-c2ccc(OC)cc2)c(C#N)c(=S)n(C2OC(COC(C)=O)C(OC(C)=O)C(OC(C)=O)C2OC(C)=O)c1C` (centres undefined), the TGI is more than 100 µM.

For `C1=CC2=CC=CC3c4nc5ccc6ccccc6c5nc4C(=C1)C23` (centres undefined), the TGI was more than 100 µM.

`O=C(NCCCN(CCCCN(CCCNC(=O)C(F)(F)F)Cc1ccccc1)Cc1ccccc1)C(F)(F)F` came in with a TGI of 34.1 µM.

With `O=C1/C(=C\c2cccc(Oc3ccccc3)c2)S(=O)(=O)C(c2ccccc2)N1Cc1ccccc1` (centres undefined), the TGI stood at 68.1 µM.

`O=C(N=Nc1cc(Cl)ccc1Cl)NNc1cc(Cl)ccc1Cl` yielded a TGI of 40.1 µM.

For `CCOC(=O)NC(=S)NN(C)C1=NCC(C)(C)S1`, the TGI is more than 100 µM.

`C/C=C/C=C/c1nc(C#N)c(N)o1` showed a TGI of more than 100 µM.

In turn, `CC(C)(C)OC(=O)NCC(=O)NCC(=O)NCC(=O)NCC(=O)O` (Boc-GGGG-OH) yielded a TGI of more than 100 µM.

In the case of `COc1cc(C2SCC(=O)N2c2ccc(NC(=O)c3ccc(N4C(=O)CSC4c4cc(OC)c(OC)c(OC)c4)cc3)cc2)cc(OC)c1OC` (centres undefined), the TGI is more than 100 µM.

Another experiment has as its system KM12 colon. In words: NCI tumour cell line growth inhibition, 48 h.
Take `O=P(c1ccccc1)(c1ccccc1)N1O[C@@H](c2ccccc2)C=C[C@H]1c1ccccc1`: the TGI was found to be 44.4 µM.

As for `COC(=O)[C@]12CC[C@H]3CN(C(=O)OCc4ccccc4)[C@H]([C@H]31)[C@H](c1ccco1)N2S(=O)(=O)c1ccc(C)cc1`, the TGI came to 38.5 µM.

The molecule `O=C1C[C@H](Sc2ccccc2)C2(OCCO2)[C@@H](Sc2ccccc2)C1` registered a TGI of 7.36 µM.

`CCCNC(=O)CCC(C)[C@H]1CCC2C3C(C[C@H](OC(C)=O)[C@@]21C)[C@@]1(C)CCC2(C[C@H]1C[C@H]3OC(C)=O)OOC1(CCC(C)CC1)OO2` (some centres undefined) returned a TGI of 20.2 µM.

Molecule `CCN(C(=S)N[C@@H](Cc1ccccc1)C(=O)N[C@@H](CC(C)C)C(=O)OC)c1ccccc1` gave a TGI of more than 100 µM.

As to `CCCn1c(CN(Cc2nc3ccccc3n2CCC)Cc2nc3ccccc3n2CCC)nc2ccccc21`, the TGI is 21.8 µM.

As to `CSc1c(C#N)c(N)n2c1C(=O)N(c1ccccc1)C2=S`, the TGI is more than 100 µM.

`N#CCCN(CCC#N)c1ccc(/C=C2\N=C(c3ccccc3)N(c3ccc(Cl)cc3)C2=O)cc1` yielded a TGI of more than 100 µM.

`Cc1c(S(=O)(=O)/N=C(\N)Nc2ccc(Cl)cc2)sc2ccc(Cl)cc12` yielded a TGI of more than 100 µM.

Molecule `NNC(=O)c1ccc[n+](CCc2ccccc2)c1` returned a TGI of more than 100 µM.

Molecule `COc1cc(NS(C)(=O)=O)ccc1N1Cc2cnc3ccc4[nH]c(C)cc1c4c23` gave a TGI of more than 100 µM.

Molecule `O=C1CN2C(c3ccccc3)=NN(c3ccc([N+](=O)[O-])cc3)C2(c2ccccc2)c2cc(Cl)ccc2N1CC1CC1` (centres undefined) returned a TGI of more than 100 µM.

The molecule `COc1ccc2cc3c4cc5c(cc4cc[n+]3cc2c1OC)OCO5` showed a TGI of 12.2 µM.

Values taken from PubChem BioAssay (NCI).
